Results published in ChEMBL document CHEMBL1909046, “DrugMatrix in vitro pharmacology data”.

Tests used:
[1] = target: Melanocortin receptor 3 (Homo sapiens, UniProt P41968); type: cell membranes, Membrane; settings: hek293; note: in other assays of this panel Not Active means under 50% inhibition at 10 µM
[2] = target: 5-hydroxytryptamine receptor 4 (Cavia porcellus, UniProt O70528); type: cell membranes, Dunkin-Hartley, Striatum, Membrane; note: in other assays of this panel Not Active means under 50% inhibition at 10 µM
5-hydroxytryptamine receptor 4, sequence (O70528 whole entry): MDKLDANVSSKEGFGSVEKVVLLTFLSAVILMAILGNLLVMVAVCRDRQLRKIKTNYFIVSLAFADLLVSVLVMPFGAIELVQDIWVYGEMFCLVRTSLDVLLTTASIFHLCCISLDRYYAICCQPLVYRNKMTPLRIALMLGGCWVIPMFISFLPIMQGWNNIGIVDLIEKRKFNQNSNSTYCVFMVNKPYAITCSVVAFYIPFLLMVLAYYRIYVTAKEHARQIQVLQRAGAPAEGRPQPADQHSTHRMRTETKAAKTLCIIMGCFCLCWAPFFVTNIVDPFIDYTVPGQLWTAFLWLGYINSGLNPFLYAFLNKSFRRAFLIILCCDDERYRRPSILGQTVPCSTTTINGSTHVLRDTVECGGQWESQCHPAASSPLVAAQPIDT

[3] = target: T1, Cytochrome P450 2A6 (Homo sapiens, UniProt P11509); settings: bti-tn-5b1-4; note: in other assays of this panel Not Active means under 50% inhibition at 10 µM
T1 sequence (P11509 whole entry): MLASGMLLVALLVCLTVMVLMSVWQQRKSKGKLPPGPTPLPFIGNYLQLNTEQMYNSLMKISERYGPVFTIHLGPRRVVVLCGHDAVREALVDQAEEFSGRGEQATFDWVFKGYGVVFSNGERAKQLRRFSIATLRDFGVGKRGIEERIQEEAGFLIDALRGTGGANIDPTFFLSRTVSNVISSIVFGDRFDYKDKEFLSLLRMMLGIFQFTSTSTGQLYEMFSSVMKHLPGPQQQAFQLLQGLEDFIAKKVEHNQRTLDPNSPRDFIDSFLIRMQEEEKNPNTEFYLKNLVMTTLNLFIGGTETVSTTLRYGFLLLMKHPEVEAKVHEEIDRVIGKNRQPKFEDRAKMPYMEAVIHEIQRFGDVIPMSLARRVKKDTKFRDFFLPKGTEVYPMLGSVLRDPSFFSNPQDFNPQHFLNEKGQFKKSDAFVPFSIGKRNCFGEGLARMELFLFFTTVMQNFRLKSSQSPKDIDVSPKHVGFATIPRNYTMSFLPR

[4] = target: T2, Substance-K receptor (Homo sapiens, UniProt P21452); type: cell membranes, CHO, Membrane; settings: for Ki: read-out: Ki; for all read-outs here: in other assays of this panel Not Active means under 50% inhibition at 10 µM
T2 sequence (P21452 whole entry): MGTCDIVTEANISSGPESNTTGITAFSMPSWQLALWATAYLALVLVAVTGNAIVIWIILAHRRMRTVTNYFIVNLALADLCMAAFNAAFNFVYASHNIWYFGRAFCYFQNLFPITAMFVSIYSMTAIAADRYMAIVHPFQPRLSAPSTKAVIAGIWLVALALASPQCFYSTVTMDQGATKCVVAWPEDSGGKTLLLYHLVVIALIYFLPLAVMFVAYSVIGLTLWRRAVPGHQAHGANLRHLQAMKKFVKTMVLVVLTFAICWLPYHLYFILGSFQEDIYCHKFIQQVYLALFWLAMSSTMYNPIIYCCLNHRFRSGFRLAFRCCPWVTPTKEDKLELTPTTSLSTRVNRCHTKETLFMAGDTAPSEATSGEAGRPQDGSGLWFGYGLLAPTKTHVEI

[5] = target: T3, Cathepsin G (Homo sapiens, UniProt P08311); type: tissue-based; settings: neutrophil
T3 sequence (P08311 whole entry): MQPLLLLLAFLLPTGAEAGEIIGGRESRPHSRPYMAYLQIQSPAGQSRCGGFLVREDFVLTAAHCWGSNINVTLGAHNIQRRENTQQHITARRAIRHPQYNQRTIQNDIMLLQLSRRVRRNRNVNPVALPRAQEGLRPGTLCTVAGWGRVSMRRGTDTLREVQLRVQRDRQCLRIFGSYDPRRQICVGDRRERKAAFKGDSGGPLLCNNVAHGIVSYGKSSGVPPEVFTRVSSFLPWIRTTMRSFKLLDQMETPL

[6] = target: Nitric oxide synthase 1 (Rattus norvegicus, UniProt P29476); type: tissue-based, Cerebellum; note: in other assays of this panel Not Active means under 50% inhibition at 10 µM
Nitric oxide synthase 1, sequence (P29476 whole entry): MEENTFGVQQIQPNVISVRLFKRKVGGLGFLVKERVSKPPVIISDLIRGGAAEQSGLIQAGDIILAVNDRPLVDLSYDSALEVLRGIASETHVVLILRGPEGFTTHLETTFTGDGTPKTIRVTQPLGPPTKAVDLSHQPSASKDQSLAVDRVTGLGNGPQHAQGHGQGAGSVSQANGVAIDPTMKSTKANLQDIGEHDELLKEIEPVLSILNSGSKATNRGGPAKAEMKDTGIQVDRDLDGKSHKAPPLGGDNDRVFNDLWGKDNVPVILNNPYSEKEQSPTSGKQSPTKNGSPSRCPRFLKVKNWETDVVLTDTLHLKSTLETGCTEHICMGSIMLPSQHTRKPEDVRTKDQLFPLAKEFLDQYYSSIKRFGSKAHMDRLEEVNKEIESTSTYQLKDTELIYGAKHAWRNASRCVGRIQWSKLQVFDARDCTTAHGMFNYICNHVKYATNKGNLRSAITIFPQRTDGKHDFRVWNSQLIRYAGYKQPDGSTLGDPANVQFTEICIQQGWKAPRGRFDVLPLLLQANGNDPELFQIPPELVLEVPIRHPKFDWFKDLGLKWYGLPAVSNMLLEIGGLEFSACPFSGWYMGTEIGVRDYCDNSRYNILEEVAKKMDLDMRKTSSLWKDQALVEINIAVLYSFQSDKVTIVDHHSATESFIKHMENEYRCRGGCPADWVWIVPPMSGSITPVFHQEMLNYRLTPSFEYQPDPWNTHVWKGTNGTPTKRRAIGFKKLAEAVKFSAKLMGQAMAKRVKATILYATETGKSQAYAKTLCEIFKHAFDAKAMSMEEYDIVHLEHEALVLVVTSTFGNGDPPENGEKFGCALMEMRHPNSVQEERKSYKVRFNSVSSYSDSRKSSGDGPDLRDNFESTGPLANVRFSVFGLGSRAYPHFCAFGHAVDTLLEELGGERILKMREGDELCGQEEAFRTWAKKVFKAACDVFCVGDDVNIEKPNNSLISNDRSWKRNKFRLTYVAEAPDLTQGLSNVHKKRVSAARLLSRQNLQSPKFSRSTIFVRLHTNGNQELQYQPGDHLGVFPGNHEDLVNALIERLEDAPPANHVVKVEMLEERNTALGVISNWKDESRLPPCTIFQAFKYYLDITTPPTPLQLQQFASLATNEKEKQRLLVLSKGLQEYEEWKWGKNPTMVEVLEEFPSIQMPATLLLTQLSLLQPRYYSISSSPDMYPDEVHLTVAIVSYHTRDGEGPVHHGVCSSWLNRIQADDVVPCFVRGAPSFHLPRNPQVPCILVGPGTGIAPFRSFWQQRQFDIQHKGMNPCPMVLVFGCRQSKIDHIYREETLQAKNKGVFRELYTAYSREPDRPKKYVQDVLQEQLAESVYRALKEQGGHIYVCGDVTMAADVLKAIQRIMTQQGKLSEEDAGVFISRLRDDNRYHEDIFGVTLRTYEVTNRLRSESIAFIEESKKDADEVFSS

[7] = target: cGMP-specific 3',5'-cyclic phosphodiesterase (Homo sapiens, UniProt O76074); test: DRUGMATRIX: Phosphodiesterase PDE5 enzyme inhibition (substrate: [3H]cGMP + cGMP); type: tissue-based, Platelet; settings: Not Active = under 50% inhibition at 10 µM

Melanocortin receptor 3, sequence (P41968 whole entry): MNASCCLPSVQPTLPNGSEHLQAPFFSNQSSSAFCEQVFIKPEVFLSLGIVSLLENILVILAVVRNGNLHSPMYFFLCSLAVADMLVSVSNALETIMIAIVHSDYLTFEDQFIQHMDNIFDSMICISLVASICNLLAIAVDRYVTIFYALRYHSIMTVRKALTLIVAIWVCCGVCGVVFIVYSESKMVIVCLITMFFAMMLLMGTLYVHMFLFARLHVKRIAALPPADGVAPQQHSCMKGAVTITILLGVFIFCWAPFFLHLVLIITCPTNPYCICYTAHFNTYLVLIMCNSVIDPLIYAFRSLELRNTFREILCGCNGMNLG

SMILES | IC50 [1] | IC50 [2] | IC50 [3] | Ki [3] | IC50 ([4]; cho) | IC50 [5] | IC50 [6] | IC50 ([7]; platelet) | IC50 ([4]; read-out: IC50) [µM] | Ki [4] [µM] | IC50 ([2]; read-out: IC50) [µM] | Ki ([2]; read-out: Ki) [µM] | IC50 ([7]; read-out: IC50) [µM]
CCCCC(=O)N(Cc1ccc(-c2ccccc2-c2nnn[nH]2)cc1)[C@H](C(=O)O)C(C)C | Not Active | Not Active | Not Active | Not Active | Not Active | Not Active | Not Active | Not Active | – | – | – | – | –
O=C(O)COc1ccc(C(=O)c2cccs2)c(Cl)c1Cl | Not Active | Not Active | Not Active | Not Active | Not Active | Not Active | Not Active | Not Active | – | – | – | – | –
CN1[C@@H]2CC[C@H]1C[C@@H](OC(c1ccccc1)c1ccccc1)C2 [BENZTROPINE] | Not Active | Not Active | Not Active | Not Active | Not Active | Not Active | Not Active | Not Active | – | – | – | – | –
C[C@@](Cc1ccc(O)c(O)c1)(NN)C(=O)O.O [CARBIDOPA] | Not Active | Not Active | Not Active | Not Active | Not Active | Not Active | Not Active | Not Active | – | – | – | – | –
CN1CCN(C2=Nc3cc(Cl)ccc3Nc3ccccc32)CC1 [CLOZAPINE] | Not Active | Not Active | Not Active | Not Active | Not Active | Not Active | Not Active | Not Active | – | – | – | – | –
CC(C)NC[C@@H](O)COc1cccc2ccccc12 [DEXPROPRANOLOL] | Not Active | Not Active | Not Active | Not Active | Not Active | Not Active | Not Active | Not Active | – | – | – | – | –
CC(C)NC[C@H](O)COc1cccc2ccccc12 [LEVOPROPRANOLOL] | Not Active | Not Active | Not Active | Not Active | Not Active | Not Active | Not Active | Not Active | – | – | – | – | –
O=C(O)CCCCC1CCSS1 (stereo not drawn) [LIPOIC ACID, ALPHA] | Not Active | Not Active | Not Active | Not Active | Not Active | Not Active | Not Active | Not Active | – | – | – | – | –
CN(C)C(=O)C(CCN1CCC(O)(c2ccc(Cl)cc2)CC1)(c1ccccc1)c1ccccc1 [LOPERAMIDE] | Not Active | Not Active | Not Active | Not Active | Not Active | Not Active | Not Active | Not Active | – | – | – | – | –
Clc1ccc(COC(Cn2ccnc2)c2ccc(Cl)cc2Cl)c(Cl)c1 (stereo unspecified) [MICONAZOLE] | – | Not Active | Not Active | Not Active | – | Not Active | Not Active | Not Active | 4.84 | 1.61 | – | – | –
Oc1ccc2c3c1O[C@H]1[C@@H](O)CC[C@@]4(O)[C@@H](C2)N(CC2CCC2)CC[C@]314 [NALBUPHINE] | Not Active | Not Active | – | – | Not Active | Not Active | Not Active | Not Active | – | – | – | – | –
C[C@]12C=CC(=O)C=C1CC[C@@H]1[C@@H]2C(=O)C[C@@]2(C)[C@H]1CC[C@]2(O)C(=O)CO [PREDNISONE] | Not Active | Not Active | – | – | Not Active | Not Active | Not Active | Not Active | – | – | – | – | –
OCCOCCN1CCN(C2=Nc3ccccc3Sc3ccccc32)CC1 [QUETIAPINE] | Not Active | Not Active | Not Active | Not Active | Not Active | Not Active | Not Active | Not Active | – | – | – | – | –
COC(=O)[C@H]1[C@H]2C[C@@H]3c4[nH]c5cc(OC)ccc5c4CCN3C[C@H]2C[C@@H](OC(=O)c2cc(OC)c(OC)c(OC)c2)[C@@H]1OC [RESERPINE] | Not Active | Not Active | Not Active | Not Active | Not Active | Not Active | Not Active | Not Active | – | – | – | – | –
O=C(O)c1ccccc1O [SALICYLIC ACID] | Not Active | Not Active | Not Active | Not Active | Not Active | Not Active | Not Active | Not Active | – | – | – | – | –
C[S+]([O-])c1ccc(-c2nc(-c3ccncc3)c(-c3ccc(F)cc3)[nH]2)cc1 (stereo unspecified) [SB-203580] | Not Active | – | Not Active | Not Active | Not Active | Not Active | Not Active | – | – | – | 10.6 | 1.76 | 11.5
CC1CCC(NC(=O)N(CCCl)N=O)CC1 (stereo unspecified) [SEMUSTINE] | Not Active | Not Active | Not Active | Not Active | Not Active | Not Active | Not Active | Not Active | – | – | – | – | –
O=C1C[C@@H]2OCC=C3CN4CC[C@]56c7ccccc7N1[C@H]5[C@H]2[C@H]3C[C@H]46 [STRYCHNINE] | Not Active | Not Active | Not Active | Not Active | Not Active | Not Active | Not Active | Not Active | – | – | – | – | –
C[N+](C)(C)CCOC(=O)CCC(=O)OCC[N+](C)(C)C.[Cl-].[Cl-] [SUCCINYLCHOLINE CHLORIDE] | Not Active | Not Active | Not Active | Not Active | Not Active | Not Active | Not Active | Not Active | – | – | – | – | –
Nc1ccc(S(=O)(=O)NC(=O)c2ccccc2)cc1 [SULFABENZAMIDE] | Not Active | Not Active | Not Active | Not Active | Not Active | Not Active | Not Active | Not Active | – | – | – | – | –
CCCCCCCCNC(C)C(O)c1ccc(SC(C)C)cc1 (stereo unspecified) [SULOCTIDIL] | Not Active | Not Active | Not Active | Not Active | – | Not Active | Not Active | Not Active | 6.79 | 2.26 | – | – | –
O=c1[nH]c(=O)n(C2CCCO2)cc1F (stereo unspecified) [TEGAFUR] | Not Active | Not Active | Not Active | Not Active | Not Active | Not Active | Not Active | Not Active | – | – | – | – | –
CC(=N)S [THIOACETAMIDE] | Not Active | Not Active | Not Active | Not Active | Not Active | Not Active | Not Active | Not Active | – | – | – | – | –
Cc1ccc(C(=O)c2ccc(CC(=O)O)n2C)cc1 [TOLMETIN] | Not Active | Not Active | Not Active | Not Active | Not Active | Not Active | Not Active | Not Active | – | – | – | – | –
CC(=O)OCC(COC(C)=O)OC(C)=O [TRIACETIN] | Not Active | Not Active | Not Active | Not Active | Not Active | Not Active | Not Active | Not Active | – | – | – | – | –
CN1CCN(CCCN2c3ccccc3Sc3ccc(C(F)(F)F)cc32)CC1 [TRIFLUOPERAZINE] | Not Active | Not Active | Not Active | Not Active | Not Active | Not Active | Not Active | Not Active | – | – | – | – | –
